Laboratory results as given in patent US20190328721A1, “METHOD OF ACTIVATING DENDRITIC CELLS” (KOREA INSTITUTE OF SCIENCE AND TECHNOLOGY, priority 2018, published 2019).

Key:
[1] = test system: CT26.CL25 cancer cell line; assay: CT26.CL25 tumor model with depletion of immune cells; format: in vivo, mice; conditions: 10 mg/kg intravenous
Protocol: Specifically, tumor model mice were prepared by subcutaneously injecting 1×10^6 cells of CT26.CL25 cancer cell line expressing β-galactosidase into wild type mice by subcutaneous injection into the left side or the like.
For the depletion of phagocytic cells in the tumor model mice, 200 μl of control liposome (FormuMax Scientific, Inc., USA) or 200 μl of clodronate liposome (FormuMax Scientific, Inc., USA) were injected intraperitoneally 5 days after cancer cell injection, and then 100 μl of the liposomes were intraperitoneally injected at intervals of 4 days until the end of the experiment Similarly, for the depletion of CD8 T cells or CD4 T cells, 200 μg of anti-CD8a antibodies (clone 2.43, bioXcell) or anti-CD4 antibodies (Clone GK 1.5, bioXcell, USA) were intraperitoneally injected (FIGS. 10A and 10B) to the tumor model mice. As a negative control, only the carrier (PBS) or the rat-derived nonspecific antibodies (rIgG, Clone LTF-2, bioXcell, USA) was administered to the tumor model mice.
From the 6th day after the injection of the cancer cells, Y27632 was administered at a dose of 10 mg/kg continuously for two consecutive days via intravenous injection, followed by a day of rest as a cycle, followed by 3 cycles of 3-day intervals. Mice were sacrificed 22 days after the injection of cancer cells, the tumor tissues were excised, and ex vivo images were taken, and the tumor tissues were weighed. Before the sacrifice of the mice, the volume of the tumor over time was calculated as described above (FIGS. 10E and 10F). […] Thus, we confirmed that the therapeutic effect of ROCK inhibitors appears to require CD8 T cells. […] As a control, a rat-derived nonspecific antibody (rIgG, BioXcell, USA) was used.

[2] = test system: bone marrow-derived dendritic cells (BMDCs); assay: BMDC maturation markers CD40 and CD86 in vitro; format: cell-based, mice; conditions: 30 μM, 1 hour
Protocol: In addition, the present inventors used pretreatment with 30 μM of Y27632 for 1 hour of bone marrow-derived dendritic cells (BMDCs) stained with cell marker CellTracker CMFDA (Thermo Fisher Scientific, Inc., USA) and then removed floating tumor cells by withdrawing removing the supernatant. Twenty hours later, the expression of CD40 and CD86 was analyzed by flow cytometry.
The present inventors then investigated whether dendritic cell maturation was promoted by the combination treatment of doxorubicin and Y27632. Specifically, 30 μM of Y27632 was used to pretreat bone marrow-derived dendritic cells (BMDC) stained with CellTracker CMFDA (Thermo Fisher Scientific, USA) for 1 hour, and then doxorubicin-treated CT26.CL25 was co-cultured for 4 hours, and floating cancer cells were removed by withdrawing supernatant. The expression level of CD40 and CD86, which are dendritic cell maturation markers, was analyzed by flow cytometry after 20 hours.

[3] = test system: bone marrow-derived macrophages (BMDMs); assay: Phagocytosis of cancer cells by bone marrow-derived macrophages in vitro; format: cell-based, mice
Protocol: Specifically, the present inventors prepared bone marrow-derived macrophages (BMDMs) differentiated from excised bone marrow of mice using M-CSF and bone marrow-derived dendritic cells (BMDCs) differentiated from excised bone marrow using Flt3L. The degree of differentiation was confirmed by flow cytometry analysis using antibodies specifically binding to F4/80 (BMDM marker) and CD11c (BMDC marker), respectively (FIGS. 2A and 2B).
The prepared BMDMs and BMDCs were stained with 1 μM CellTracker Deep Red (Thermo Fisher Scientific, USA). 30 μM of Y27632 (Abcam, USA) or 30 μM of fasudil (Selleck Chemicals, USA) was added to each of 15×10^4 cells/ml of the stained macrophages and dendritic cells and incubated at 37° C. for 1 hour. As a negative control, macrophages or dendritic cells that were not incubated with Y27632 and fasudil were used.
Bone marrow-derived macrophages or dendritic cells prepared in RPMI medium and cancer cell lines stained with 1 μM CellTracker CMFDA (Thermo Fisher Scientific, USA) were co-cultured at about 37° C. for about 2 hours. CT26.CL25, a colon cancer cell line, and B16F10-OVA, a melanoma cell line, were used as the cancer cells.
Thereafter, the percentage of cancer cells was measured by flow cytometry, and the phagocytosis ratio of macrophages and dendritic cells against cancer cells was calculated. The results are shown in FIGS. 2C to 2F (left: cancer cell line CT26.CL25, right: cancer cell line B16F10-OVA).
In order to more accurately analyze the phagocytosis of macrophages and dendritic cells against cancer cells according to the treatment of the ROCK inhibitor, the present inventors analyzed phagocytosis of the BMDMs and BMDCs against CT26.CL25 colon cancer cells using the pHrodo-SE dye, which changes in fluorescence depending on pH. When […], the pH of the cancer cells decreased and became red. When treated with Y27632 as described above for the above-mentioned phagocytosis response, the phagocytic activities of both the BMDMs and BMDCs against cancer cells were improved.
The present inventors performed an experiment to confirm how long the phagocytosis of BMDMs and BMDCs against cancer cells due to the ROCK inhibitor is maintained. Specifically, BMDMs and BMDCs were pretreated with Y27632 for 1 hour, then Y27632 was removed, and immediately after 30 minutes, 1 hour, 2 hours, or 4 hours, the phagocytosis against CT26.CL25 and B16F10-Ova was measured using a flow cytometer. The other experimental conditions were the same as in Example 1-1.
In order to confirm whether the ROCK inhibitor increases phagocytosis against cancer cells by acting on phagocytic cells (BMDMs or BMDCs) themselves, Y27632 was used to pretreat the phagocytic cells or cancer cells for 1 hour, and the phagocytic activity was analyzed using the same procedure described in Example 1-1.
The present inventors identified through the above-mentioned results that Y27632 promotes phagocytic cells against cancer cells by inhibiting ROCK in the phagocytic cells. In order to elucidate a more detailed mechanism related to the increase of phagocytic activity by ROCK inhibitors, the present inventors analyzed phagocytosis of the phagocytic cells against cancer cells using blebbistatin (Sigma-Aldrich, USA), which can inhibit the movement of myosin light chain, which exist downstream of ROCK signaling pathway, according to the method described in Example 1-1.
Bone marrow-derived macrophages (BMDMs) treated with 30 μM of fasudil were co-cultured with B16F10-Ova malignant melanoma cells for 1 hour and the phagocytic activity of the BMDMs against apoptotic cancer cells was analyzed by flow cytometry analysis. In order to induce immunogenic apoptosis, 2.5 μM mitoxantrone (Sigma-Aldrich, USA) was administered with B16F10-Ova cells stained with CellTracker Deep Red (Thermo Fisher Scientific, USA) for 4 hours. […]

In the case of `C[C@@H](N)[C@H]1CC[C@H](C(=O)Nc2ccncc2)CC1` [Y27632], the “anti-cancer effect when CD8 T cells were depleted by anti-CD8a antibodies” value [1] was “disappeared”, the “anti-cancer effect when phagocytic cells were depleted by clodronate” value [1] was “disappeared” and the “anticancer effect when CD4 T cells were deficient” value [1] was “anticancer effect similar to that in normal mice”. The “DC maturation (CD40 and CD86 expression) of BMDCs” value ([2]; co-cultivation with CT26.CL25, analysed twenty hours later) was “did not increase”, the “dendritic cell maturation (CD40 and CD86) with doxorubicin-treated CT26.CL25” value ([2]; co-culture 4 hours, analysed after 20 hours) was “increased” and the “phagocytic ability of macrophages against cancer cells” value ([3]; 30 μM, 1 hour, co-culture with CT26.CL25 or B16F10-OVA about 2 hours) was “significantly increased”. For the same compound, the “phagocytic activity of BMDMs against cancer cells (pHrodo-SE dye)” value ([3]; CT26.CL25 colon cancer cells) was “improved”, the “phagocytosis by BMDMs against cancer cells, cancer cells pre-treated” value ([3]; cancer cells pretreated for 1 hour) was “not increased” and the “phagocytosis against cancer cells, BMDMs pretreated” value ([3]; phagocytic cells pretreated for 1 hour) was “increased”. For the same compound, the “time for which BMDMs maintain phagocytosis after the pretreatment” value ([3]; pretreated 1 hour, then removed, CT26.CL25 and B16F10-Ova) was at most 1 h.
